Patent publication US4617314A, “Benzofuran- and benzopyran-carboxamide derivatives” (priority 1983, dated 1986)

Columns and labels:
[1] = test system: hypermotility of mice induced by apomorphine; test: Anti-apomorphine Action (mice): suppression of spontaneous motility; type: in vivo, mice (male dd-strain); details: 60 min before 0.5 mg/kg apomorphine hydrochloride, 50% suppression of spontaneous motility; for Anti-apomorphine Action ED50, Mice, Motility: p.o.; for ED50: Mus musculus, po
Excerpt: (§1) Dopamine antagonism was observed by the antagonism to
(1) hypermotility of mice, and
(§2) induced by the administration of apomorphine to the animals which drug acts on dopamine. The response of (1) is considered to be due to the action of dopamine on the mesolimbic system whereas the response of (2) is regarded mainly as the action of dopamine on the extrapyramidal system. As a consequence, a drug having high selectivity to the antagonism to the response of (1) is deemed to be more useful with less extrapyramidal side effects.
Groups of 5 male dd-strain mice were used. Test compounds were orally administered and 60 minutes thereafter, 0.5 mg/kg of apomorphine hydrochloride was intracutaneously administered. Immediately thereafter, spontaneous motility of the mice was measured with the aid of Animex (manufactured by Columbus Company, U.S.A.) for 20 minutes. The procedure was repeated three times with respective groups. The dose of test compounds required for 50% suppression of spontaneous motility of control group was graphically intraporated and determined as ED50 value.

[2] = test system: stereotyped behavior of rats induced by apomorphine; test: Anti-apomorphine Action (rats): suppression of gnawing (stereotyped) behavior; type: in vivo, rats (female Wistar); details: Rattus norvegicus, po, 60 min before 1.25 mg/kg i.v. apomorphine hydrochloride; 50% suppression of gnawing behavior; probit
Excerpt: as §1
(2) stereotyped behavior of rats
as §2
Groups of 7 female Wistar rats were used. Test compounds were orally administered, 60 minutes thereafter, apomorphine hydrochloride was intravenously administered at a dosage of 1.25 mg/kg. After 5 minutes and 20 minutes, respectively, whether gnawing behavior (stereotyped behavior) appears or not during the period of 5 minutes was observed. The dose of test compounds required for 50% suppression of the appearance was evaluated as ED50 value by probit method.

[3] = test system: rats administered with methamphetamine; test: Methamphetamine Potentiation Action (lethality increasing effect); type: in vivo, rats (male Wistar); details: 8 rats/group, methamphetamine hydrochloride 5 mg/kg i.p.
Experimental: Activation effect was construed as lethality increasing effect of a test drug on rats which were administered with methamphetamine at a non-lethal dose every week. Accordingly, it is considered that the greater is the number of rats which died at a lower dose in an earlier week, the activation activity is the higher.
Groups of 8 male Wistar rats weighing above […] were used. Test compounds are intraperitoneally administered and 15 minutes thereafter, 5 mg/kg of methamphetamine hydrochloride was intraperitoneally administered. Number of dead rats within one week was counted. In the 2nd to 4th week, experiment was likewise repeated at one week intervals by the administration of test compounds and methamphetamine hydrochloride.

[4] = in vivo; cited from earlier work
extrapyramidal system = details: cited from earlier work
[5] = in vivo, po; cited from earlier work

SMILES: CCN1CCCC1CNC(=O)c1cc(S(N)(=O)=O)cc2c1OC(C)C2 (single isomer, unassigned) [B, N-(1-ethyl-2-pyrrolidinylmethyl)-2-methyl-5-sulfamoyl-2,3-dihydrobenzofuran-7-carboxamide]
- Anti-apomorphine Action ED50, Mice, Motility [1]: 23 mg/kg

SMILES: CCN1CCCC1CNC(=O)c1cc(S(N)(=O)=O)cc2c1OC(C)C2 (single isomer, unassigned) [C, N-(1-ethyl-2-pyrrolidinylmethyl)-2-methyl-5-sulfamoyl-2,3-dihydrobenzofuran-7-carboxamide]
- Anti-apomorphine Action ED50, Mice, Motility [1]: 85 mg/kg

SMILES: CCN1CCCC1CNC(=O)c1cc(S(N)(=O)=O)cc2c1OC(C)C2 (centres unmarked) [A, N-(1-ethyl-2-pyrrolidinylmethyl)-2-methyl-5-sulfamoyl-2,3-dihydrobenzofuran-7-carboxamide]
- ED50 [1]: 80 mg/kg
- ED50 [2]: > 100 mg/kg
- Methamphetamine Potentiation Action, Number of Dead Animal, Total Number ([3]; 1st Week, 5 mg/kg): 1
- Methamphetamine Potentiation Action, Number of Dead Animal, Total Number ([3]; 1st Week, 10 mg/kg): 0
- Methamphetamine Potentiation Action, Number of Dead Animal, Total Number ([3]; 1st Week, 20 mg/kg): 2
- Methamphetamine Potentiation Action, Number of Dead Animal, Total Number ([3]; 2nd Week, 5 mg/kg): 1
- Methamphetamine Potentiation Action, Number of Dead Animal, Total Number ([3]; 2nd Week, 10 mg/kg): 3
- Methamphetamine Potentiation Action, Number of Dead Animal, Total Number ([3]; 2nd Week, 20 mg/kg): 5
- Methamphetamine Potentiation Action, Number of Dead Animal, Total Number ([3]; 3rd Week, 5 mg/kg): 1
- Methamphetamine Potentiation Action, Number of Dead Animal, Total Number ([3]; 3rd Week, 10 mg/kg): 4
- Methamphetamine Potentiation Action, Number of Dead Animal, Total Number ([3]; 3rd Week, 20 mg/kg): 5
- Methamphetamine Potentiation Action, Number of Dead Animal, Total Number ([3]; 4th Week, 5 mg/kg): 1
- Methamphetamine Potentiation Action, Number of Dead Animal, Total Number ([3]; 4th Week, 10 mg/kg): 4
- Methamphetamine Potentiation Action, Number of Dead Animal, Total Number ([3]; 4th Week, 20 mg/kg): 7

SMILES: CC1Cc2cc(S(N)(=O)=O)cc(C(=O)NC3CCN(Cc4ccccc4)C3)c2O1 (centres unmarked) [Compound E, N-(1-benzyl-3-pyrrolidinyl)-2-methyl-5-sulfamoyl-2,3-dihydrobenzofuran-7-carboxamide]
- ED50 [1]: 100 mg/kg
- ED50 [2]: > 100 mg/kg

SMILES: CCCCN1CCCC1CNC(=O)c1cc(S(N)(=O)=O)cc2c1OC(C)C2 (centres unmarked) [Compound I, N-(1-butyl-2-pyrrolidinylmethyl)-2-methyl-5-sulfamoyl-2,3-dihydrobenzofuran-7-carboxamide]
- ED50 [1]: 30 mg/kg
- ED50 [2]: > 100 mg/kg

SMILES: CC1Cc2cc(S(N)(=O)=O)cc(C(=O)NCC3CCCN3Cc3ccccc3)c2O1 (centres unmarked) [D, N-(1-benzyl-2-pyrrolidinylmethyl)-2-methyl-5-sulfamoyl-2,3-dihydrobenzofuran-7-carboxamide]
- ED50 [1]: 6 mg/kg
- ED50 [2]: 21 mg/kg

SMILES: NS(=O)(=O)c1cc2c(c(C(=O)NCC3CCCN3Cc3ccccc3)c1)OCC2 (centres unmarked) [F, N-(1-benzyl-2-pyrrolidinylmethyl)-5-sulfamoyl-2,3-dihydrobenzofuran-7-carboxamide]
- ED50 [1]: 17 mg/kg
- ED50 [2]: > 100 mg/kg
- Methamphetamine Potentiation Action, Number of Dead Animal, Total Number ([3]; 1st Week, 10 mg/kg): 0
- Methamphetamine Potentiation Action, Number of Dead Animal, Total Number ([3]; 1st Week, 25 mg/kg): 0
- Methamphetamine Potentiation Action, Number of Dead Animal, Total Number ([3]; 1st Week, 50 mg/kg): 0
- Methamphetamine Potentiation Action, Number of Dead Animal, Total Number ([3]; 2nd Week, 10 mg/kg): 0
- Methamphetamine Potentiation Action, Number of Dead Animal, Total Number ([3]; 2nd Week, 25 mg/kg): 0
- Methamphetamine Potentiation Action, Number of Dead Animal, Total Number ([3]; 2nd Week, 50 mg/kg): 2
- Methamphetamine Potentiation Action, Number of Dead Animal, Total Number ([3]; 3rd Week, 10 mg/kg): 0
- Methamphetamine Potentiation Action, Number of Dead Animal, Total Number ([3]; 3rd Week, 25 mg/kg): 1
- Methamphetamine Potentiation Action, Number of Dead Animal, Total Number ([3]; 3rd Week, 50 mg/kg): 3
- Methamphetamine Potentiation Action, Number of Dead Animal, Total Number ([3]; 4th Week, 10 mg/kg): 1
- Methamphetamine Potentiation Action, Number of Dead Animal, Total Number ([3]; 4th Week, 25 mg/kg): 2
- Methamphetamine Potentiation Action, Number of Dead Animal, Total Number ([3]; 4th Week, 50 mg/kg): 6

SMILES: CC(C)CN1CCCC1CNC(=O)c1cc(S(N)(=O)=O)cc2c1OCC2 (centres unmarked) [G, N-(1-isobutyl-2-pyrrolidinylmethyl)-5-sulfamoyl-2,3-dihydrobenzofuran-7-carboxamide]
- ED50 [1]: 35 mg/kg
- ED50 [2]: > 100 mg/kg

SMILES: CC(C)CN1CCCC1CNC(=O)c1cc(S(N)(=O)=O)cc2c1OC(C)C2 (centres unmarked) [H, N-(1-isobutyl-2-pyrrolidinylmethyl)-2-methyl-5-sulfamoyl-2,3-dihydrobenzofuran-7-carboxamide]
- ED50 [1]: 19 mg/kg
- ED50 [2]: 60 mg/kg
- Methamphetamine Potentiation Action, Number of Dead Animal, Total Number ([3]; 1st Week, 20 mg/kg): 0
- Methamphetamine Potentiation Action, Number of Dead Animal, Total Number ([3]; 1st Week, 40 mg/kg): 2
- Methamphetamine Potentiation Action, Number of Dead Animal, Total Number ([3]; 2nd Week, 20 mg/kg): 6
- Methamphetamine Potentiation Action, Number of Dead Animal, Total Number ([3]; 2nd Week, 40 mg/kg): 4
- Methamphetamine Potentiation Action, Number of Dead Animal, Total Number ([3]; 3rd Week, 20 mg/kg): 6
- Methamphetamine Potentiation Action, Number of Dead Animal, Total Number ([3]; 3rd Week, 40 mg/kg): 7
- Methamphetamine Potentiation Action, Number of Dead Animal, Total Number ([3]; 4th Week, 20 mg/kg): 7
- Methamphetamine Potentiation Action, Number of Dead Animal, Total Number ([3]; 4th Week, 40 mg/kg): 7

SMILES: CCN1CCCC1CNC(=O)c1cc(S(=O)(=O)NC)cc2c1OC(C)C2.Cl (centres unmarked) [J, N-(1-ethyl-2-pyrrolidinylmethyl)-2-methyl-5-methylsulfamoyl-2,3-dihydrobenzofuran-7-carboxamide hydrochloride]
- ED50 [1]: 10 mg/kg
- ED50 [2]: > 100 mg/kg

SMILES: CCN1CCCC1CNC(=O)c1cc(SC)cc2c1OC(C)C2.Cl (centres unmarked) [K, N-(1-ethyl-2-pyrrolidinylmethyl)-2-methyl-5-methylthio-2,3-dihydrobenzofuran-7-carboxamide hydrochloride]
- ED50 [1]: 0.65 mg/kg
- ED50 [2]: 0.2 mg/kg

SMILES: CCN1CCCC1CNC(=O)c1cc(S(N)(=O)=O)cc2c1OCC2.O (centres unmarked) [L, N-(1-ethyl-2-pyrrolidinylmethyl)-5-sulfamoyl-2,3-dihydrobenzofuran-7-carboxamide monohydrate]
- Methamphetamine Potentiation Action, Number of Dead Animal, Total Number ([3]; 1st Week, 25 mg/kg): 3
- Methamphetamine Potentiation Action, Number of Dead Animal, Total Number ([3]; 2nd Week, 25 mg/kg): 3
- Methamphetamine Potentiation Action, Number of Dead Animal, Total Number ([3]; 3rd Week, 25 mg/kg): 7
- Methamphetamine Potentiation Action, Number of Dead Animal, Total Number ([3]; 4th Week, 25 mg/kg): 8

SMILES: CCN1CCCC1CNC(=O)c1cc(S(N)(=O)=O)ccc1OC (centres unmarked) [Sulpyride, reference compound]
- crossing of blood-brain barrier [4]: difficult to cross blood-brain barrier
- ED50 [1]: 330 mg/kg
- ED50 [2]: > 500 mg/kg
- Methamphetamine Potentiation Action, Number of Dead Animal, Total Number ([3]; 1st Week, 20 mg/kg): 0
- Methamphetamine Potentiation Action, Number of Dead Animal, Total Number ([3]; 1st Week, 40 mg/kg): 0
- Methamphetamine Potentiation Action, Number of Dead Animal, Total Number ([3]; 1st Week, 80 mg/kg): 2
- Methamphetamine Potentiation Action, Number of Dead Animal, Total Number ([3]; 2nd Week, 20 mg/kg): 0
- Methamphetamine Potentiation Action, Number of Dead Animal, Total Number ([3]; 2nd Week, 40 mg/kg): 0
- Methamphetamine Potentiation Action, Number of Dead Animal, Total Number ([3]; 2nd Week, 80 mg/kg): 3
- Methamphetamine Potentiation Action, Number of Dead Animal, Total Number ([3]; 3rd Week, 20 mg/kg): 0
- Methamphetamine Potentiation Action, Number of Dead Animal, Total Number ([3]; 3rd Week, 40 mg/kg): 1
- Methamphetamine Potentiation Action, Number of Dead Animal, Total Number ([3]; 3rd Week, 80 mg/kg): 3
- Methamphetamine Potentiation Action, Number of Dead Animal, Total Number ([3]; 4th Week, 20 mg/kg): 0
- Methamphetamine Potentiation Action, Number of Dead Animal, Total Number ([3]; 4th Week, 40 mg/kg): 1
- Methamphetamine Potentiation Action, Number of Dead Animal, Total Number ([3]; 4th Week, 80 mg/kg): 3
- cataleptogenic activity (extrapyramidal system; as opposed to butyrophenone-series (haloperidol) or phenothiazine-series (chlorpromazine) compounds): weak
- side effects on the extrapyramidal system (extrapyramidal system; in vivo): less side effects
- uptake rate in living organisms [5]: low uptake rate
